Values of other authors, collected in patent publication US20240285565A1, “USE OF (S)-3-AMINO-4-(DIFLUOROMETHYLENYL)CYCLOPENT-1-ENE-1-CARBOXYLIC ACID IN THE TREATMENT OF DIABETES AND PRE-DIABETES” (Ovid Therapeutics Inc., priority 2023, published 2024).

What was measured:
[1] = target: alanine aminotransferase (Ala-AT)
OAT = target: T1, OAT (Homo sapiens, UniProt P04181)
T1 sequence (P04181 26-439): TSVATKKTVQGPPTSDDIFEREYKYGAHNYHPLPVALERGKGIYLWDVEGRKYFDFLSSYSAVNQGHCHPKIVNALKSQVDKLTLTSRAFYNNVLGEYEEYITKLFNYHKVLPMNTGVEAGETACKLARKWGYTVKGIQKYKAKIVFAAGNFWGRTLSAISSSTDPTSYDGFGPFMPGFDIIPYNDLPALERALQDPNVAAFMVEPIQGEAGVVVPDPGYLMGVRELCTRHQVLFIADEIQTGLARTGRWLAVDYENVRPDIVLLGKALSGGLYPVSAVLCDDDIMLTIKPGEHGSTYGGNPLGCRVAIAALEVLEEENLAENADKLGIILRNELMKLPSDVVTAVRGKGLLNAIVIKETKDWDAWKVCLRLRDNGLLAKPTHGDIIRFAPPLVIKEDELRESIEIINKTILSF

[2] = target: aspartate aminotransferase (Asp-AT)

Row | Compound | IC50 ([1]; reversible inhibition) [mM] | Kinact/K1 (OAT) (OAT) [mM⁻¹ min⁻¹] | times more efficient an inactivator of OAT than CPP-115 (OAT; ratio of Kinact/K1 relative to CPP-115) [times] | IC50 ([2]; reversible inhibition) [mM] | inactivation or inhibition of Ala-AT ([1]; result in words) | Ki (OAT; read-out: K1 (OAT)) [µM] | inactivation or inhibition of Asp-AT ([2]; result in words)
1 | N[C@H]1C=C(C(=O)O)CC1=C(F)F [(S)-3-amino-4-(difluoromethylenyl)cyclopent-1-ene-1-carboxylic acid] | > 4 | 7.6 | 9.0 | > 4 | – | – | –
2 | N[C@H]1C[C@@H](C(=O)O)CC1=C(F)F [CPP-115, (1S,3S)-3-amino+difluoromethylenyl-1-cyclopentanoic acid, reference compound] | – | – | – | – | not to inactivate or inhibit | 116 | not to inactivate or inhibit
